In publication PMC6027665, “Synthesis and Cytotoxicity Evaluation of Novel Asymmetrical Mono-Carbonyl Analogs of Curcumin (AMACs) against Vero, HeLa, and MCF7 Cell Lines” (Scientia Pharmaceutica, 2018):
Converted amounts (≈) assume the structure as drawn. Read-outs that look alike come from different tables or passages of the source.

Columns and labels:
[1] = tested on: Vero cell lines (ATCC CCL-81); assay: MTT proliferation assay, Vero cell lines (normal cells); format: cell-based, African green monkey; conditions: 48 h incubation, mean ± SD (n = 3)
Description: (§1) The cytotoxic activity of the synthesized compounds was evaluated against human cervix carcinoma (HeLa, ATCC CCL-2) cell lines, human estrogen-dependent breast carcinoma (MCF7, ATCC HTB-22) cell lines, and kidney of an African green monkey (Vero, ATCC CCL-81) as a normal cell lines using the methyl thiazolyl tetrazolium (MTT) method conducted according to the MTT assay protocol published by the American Type Culture Collection (ATCC). Cisplatin was used as a reference drug. Curcumin was also evaluated as a comparative compound on the tests against Vero and MCF7 cell lines, and doxorubicin was evaluated as an additional comparator on the test against MCF7 cell lines. The assay detects the reduction of yellow tetrazolium (MTT) by metabolically active cells to be purple formazan measured using spectrophotometry.
(§2) The cells lines were seeded into 96-well plates at a density of 5000 cells per well, replenished with growth media consisting of Dulbecco’s Modified Eagle’s medium (D-MEM) for Vero or Roswell Park Memorial Institute (RPMI) 1640 medium for MCF7 and HeLa, 5% Fetal Bovine Serum (FBS), 100 U/mL penicillin, and 100 μg/mL streptomycin. The cells were incubated at 37 °C in 5% CO2 for 24 h. Then, a series concentrations of the tested compounds (1.5, 3.1, 6.2, 12.5, 25.0, 50.0, 100.0, and 200.0 µg/mL) were added to each well of the plate and incubated for 48 h. After that, 10 μL fresh solution of MTT reagent was added to each well, and the plate was incubated in a CO2 incubator at 37 °C for 4 h. After the purple precipitate was obtained, the cells were dissolved in ethanol and their optical density was recorded at 595 nm. The experiment was performed in triplicate. Percent proliferation inhibition was calculated using the following formula: Viability cells inhibition (%)=100−[(At−Ab)/(Ac−Ab)] ×100%
(§3) At = absorption of test compound, Ab = absorption of blank, Ac = absorption of control.
(§4) The concentration of the synthesized compounds required to inhibit 50% of the growth of the cell lines (IC50 values) was calculated by analyzing the relationship between concentrations and percent (%) inhibitions using GraphPad Prism 7 version 7.00 for Windows, GraphPad Software, La Jolla, CA, USA, www.graphpad.com.

[2] = tested on: HeLa cell lines (human cervix carcinoma, ATCC CCL-2); assay: MTT proliferation assay, HeLa cell lines; format: cell-based; conditions: 48 h incubation, mean ± SD (n = 3)
Description: as §1, §2, §3, §4

[3] = tested on: MCF7 cell lines (human estrogen-dependent breast carcinoma, ATCC HTB-22); assay: MTT proliferation assay, MCF7 cell lines; format: cell-based
Description: as §1, §2, §3, §4

[4] = Brine shrimp lethality test (BSLT); format: in vivo; conditions: Artemia salina (brine shrimp) larvae, in vivo, other: compound diluted in the seawater holding the larvae; brine shrimp larvae, 24 h, triplicate
Description: (§5) The assay was carried out according to the principle and protocol previously described by Meyer, with slight modification. Artemia salina L. eggs were inserted into a box containing seawater; the box was placed under UV lamp, and after 48 h the eggs hatched into larvae and ready for the test. The compounds (1a–1e, 2a–2e) were diluted in 10 mL seawater containing 10 larvae (1% DMSO (v/v)) until concentrations 20, 200, 500, and 1000 ppm were reached. After 24 h, the live and dead shrimp were counted. The mortality rate (%) was obtained by comparing the number of total dead larvae and the total number of larvae. The experiment was conducted in triplicate. The concentrations (dose)-response (% mortality) data were transformed into a straight line using a logit transformation, and the concentration required to kill 50% of the population (LC50 values) was derived from the best fit line obtained by linear regression analysis.

Artemia salina L. larvae = assay: Brine shrimp lethality test (BSLT); format: in vivo; conditions: Artemia salina, read-out: BSLT toxicity level
Description: as §5

[5] = tested on: HeLa cell lines (human cervix carcinoma, ATCC CCL-2); parameters: method as in doi:10.1016/j.toxlet.2016.06.1915; conditions: value of an earlier study; cited from earlier work
[6] = Homo sapiens, MCF7, 48 h incubation, mean ± SD (n = 3), read-out: IC50 (µM) MCF7

Compound | IC50 ([1]; Chlorocebus sabaeus, Vero) [µM] | IC50 ([2]; Homo sapiens) [µM] | IC50 [3, 6] [µM] | LC50 at 24 h [4] [µM] | LC50 (Artemia salina L. larvae) [mg/L] | IC50 ([3]; Homo sapiens, MCF7, same value in µg/mL, read-out: IC50 MCF7) [mg/L] | IC50 [1] [µM] | IC50 [2] [µM] | IC50 ([3]; 48 h incubation, mean ± SD (n = 3), read-out: IC50 (µM) MCF7) [µM] | IC50 [5] [µM]
CCN(CC)Cc1cc(/C=C2\CCC/C(=C\c3ccc(C)cc3)C2=O)cc(OC)c1O [Compound 2e, (2E,6E)-2-({3-[(diethylamino)methyl]-4-hydroxy-5-methoxyphenyl}methylidene)-6-[(4-methylphenyl)methylidene]cyclohexan-1-one] | 15.02 ± 0.14 | 76.6 ± 4.27 | 14.6 ± 1.96 | 1700 | 100 to 1000 (≈ 238 to 2380 µM) |  |  |  |  | 
CCN(CC)Cc1cc(/C=C2\CCC/C(=C\c3ccc(F)cc3)C2=O)cc(OC)c1O [Compound 2c, (2E,6E)-2-({3-[(diethylamino)methyl]-4-hydroxy-5-methoxyphenyl}methylidene)-6-[(4-fluorophenyl)methylidene]cyclohexan-1-one] | 4.23 ± 0.32 | 41.1 ± 0.16 |  | 88.4 | 30 to 100 (≈ 70.8 to 236 µM) |  |  |  |  | 
COc1cccc2c1C(=O)c1c(O)c3c(c(O)c1C2=O)C[C@@](O)(C(=O)CO)C[C@@H]3O[C@H]1C[C@H](N)[C@H](O)[C@H](C)O1 [Doxorubicin, reference compound] |  |  | < 2.94 |  |  |  |  |  |  | 
COc1cc(/C=C2\CCC/C(=C\c3ccc(F)cc3)C2=O)ccc1O [Compound 1c, (2E,6E)-2-[(4-hydroxy-3-methoxyphenyl)methylidene]-6-[(4-fluorophenyl)methylidene] cyclohexan-1-one] | 13.4 ± 0.39 | 49.1 ± 1.17 | 10.9 ± 0.79 | 177 | 30 to 100 (≈ 88.7 to 296 µM) |  |  |  |  | 
CCN(CC)Cc1cc(/C=C2\CCC/C(=C\c3ccc(OC)cc3)C2=O)cc(OC)c1O [Compound 2b, (2E,6E)-2-({3-[(diethylamino)methyl]-4-hydroxy-5-methoxyphenyl}methylidene)-6-[(4-methoxyphenyl)methylidene]cyclohexan-1-one] | 7.29 ± 0.12 | 69.3 ± 3.17 |  | 80.2 | 30 to 100 (≈ 68.9 to 230 µM) |  |  |  |  | 
COc1ccc(/C=C2\CCC/C(=C\c3ccc(O)c(OC)c3)C2=O)cc1 [Compound 1b, (2E,6E)-2-[(4-hydroxy-3-methoxyphenyl)methylidene]-6-[(4-methoxyphenyl)methylidene] cyclohexan-1-one] | 15.4 ± 0.34 | 95.5 ± 7.19 | 7.86 ± 1.05 | 323 | 100 to 1000 (≈ 285 to 2850 µM) | 2.75 |  |  |  | 
COc1cc(/C=C2\CCC/C(=C\c3ccc(Cl)cc3)C2=O)ccc1O [Compound 1d, (2E,6E)-2-[(4-hydroxy-3-methoxyphenyl)methylidene]-6-[(4-chlorophenyl)methylidene] cyclohexan-1-one] | 14.1 ± 0.18 | 55.6 ± 1.49 | 35.9 ± 4.57 | 204 | 30 to 100 (≈ 84.5 to 282 µM) |  |  |  |  | 
COc1cc(/C=C/C(=O)CC(=O)/C=C/c2ccc(O)c(OC)c2)ccc1O [Curcumin] | 31.4 ± 0.41 |  | 10.5 ± 1.1 |  |  |  |  |  |  | 
COc1cc(/C=C2\CCC/C(=C\c3ccc(C)cc3)C2=O)ccc1O [Compound 1e, (2E,6E)-2-[(4-hydroxy-3-methoxyphenyl)methylidene]-6-[(4-methylphenyl)methylidene] cyclohexan-1-one] | 16.1 ± 0.18 | 61.2 ± 2.86 | 10.4 ± 0.36 | 78.7 | < 30 |  |  |  |  | 
CCN(CC)Cc1cc(/C=C2\CCC/C(=C\c3ccc(Cl)cc3)C2=O)cc(OC)c1O [Compound 2d, (2E,6E)-2-({3-[(diethylamino)methyl]-4-hydroxy-5-methoxyphenyl}methylidene)-6-[(4-chlorophenyl)methylidene]cyclohexan-1-one] | 3.94 ± 0.07 | 40.6 ± 0.98 |  | 29.8 | < 30 |  |  |  |  | 
CCN(CC)Cc1cc(/C=C2\CCC/C(=C\c3ccccc3)C2=O)cc(OC)c1O [Compound 2a, (2E,6E)-2-({3-[(diethylamino)methyl]-4-hydroxy-5-methoxyphenyl}methylidene)-6-(phenylmethylidene)cyclohexan-1-one] | 4.14 ± 0.21 | 46.6 ± 1.54 |  | 921 | 100 to 1000 (≈ 247 to 2470 µM) |  |  |  |  | 
N.N.[Cl][Pt][Cl] [Cisplatin, reference compound] |  |  |  |  |  |  | 84.7 ± 2.09 | 67.6 ± 2.04 | 12.8 ± 1.35 | 12.3
COc1cc(/C=C2\CCC/C(=C\c3ccccc3)C2=O)ccc1O [Compound 1a, (2E,6E)-2-[(4-hydroxy-3-methoxyphenyl)methylidene]-6-(phenylmethylidene)cyclohexan-1-one] | 13.98 ± 0.04 | > 100 | > 100 | 197 | 30 to 100 (≈ 93.6 to 312 µM) |  |  |  |  | 
